From paper PMC6501426 (Clinical Epigenetics, 2019)

Key:
KG-1 = test: Cell viability, trypan blue exclusion; assay type: cell-based, human
Method: (§1) U-937 (acute myeloid leukemia), RAJI (Burkitt’s lymphoma), PC-3 (prostate cancer), and MDA-MB-231 (breast cancer) cell lines were obtained from the Deutsche Sammlung für Mikroorganismen and Zellkulturen (DSZM, Braunschweig, Germany) and were cultured in RPMI 1640 (Lonza, Verviers, Belgium) complemented with 10% FBS (Lonza, Verviers, Belgium) and 1% antibiotic-antimycotic (Lonza). RPMI1788 (normal B lymphocytes) and KG-1 (acute myeloid leukemia) cell lines were obtained from the American Type Culture Collection (ATCC) and were maintained in RPMI 1640 complemented with 20% FBS and IMDM complemented with 10% FBS, respectively. Cell lines were treated with compounds at the indicated concentrations in the exponential growth phase.
(§2) Proliferation and viability of U-937, KG-1, RAJI, PC-3, MDA-MB-231, RPMI1788, PBMCs, and PHA_PBMCs were assessed by trypan blue exclusion assays at the indicated time points. Nuclear morphology changes associated with apoptosis and necrosis were evaluated by fluorescence microscopy after Hoechst and propidium iodide (PI) staining as previously described.
(§3) IC50 values of compounds against cellular viability were determined by using nonlinear regression fitting curves with GraphPad Prism 8 or CalcuSyn software The t test used for statistical analyses was performed with GraphPad Prism 8. All the tests were one-tailed, and a p value < 0.05 was considered statistically significant.

MDA-MB-231 = test: Cell viability, trypan blue exclusion; assay type: cell-based, human
Method: as §1, §2, §3

PC-3 = test: Cell viability, trypan blue exclusion; assay type: cell-based, human
Method: as §1, §2, §3

RAJI = test: Cell viability, trypan blue exclusion; assay type: cell-based, human
Method: as §1, §2, §3

U-937 = test: Cell viability, trypan blue exclusion; assay type: cell-based, human
Method: as §1, §2, §3

[1] = tested on: RPMI1788 (normal B lymphocytes); test: Cell viability, trypan blue exclusion; assay type: cell-based; settings: Homo sapiens, RPMI-1788; 48 h of treatment; normal cells; read-out: IC50 ± SD, cell viability, RPMI1788
Method: as §1, §2
IC50 values of compounds against cellular viability were determined by using nonlinear regression fitting curves with GraphPad Prism 8 or CalcuSyn software The t test used for statistical analyses was performed with GraphPad Prism 8. […]

Abl kinase (h) = biological target: T1, Abl kinase (h) (Homo sapiens, UniProt P00519); test: Kinase panel (ExpresS Diversity Kinase Profile, Cerep); assay type: biochemical; settings: read-out: % inhibition at 10 µM by MC3353, Abl kinase (h), ATP 10 μM
T1 construct: purchased Eurofins Cerep
T1 sequence (P00519 whole entry): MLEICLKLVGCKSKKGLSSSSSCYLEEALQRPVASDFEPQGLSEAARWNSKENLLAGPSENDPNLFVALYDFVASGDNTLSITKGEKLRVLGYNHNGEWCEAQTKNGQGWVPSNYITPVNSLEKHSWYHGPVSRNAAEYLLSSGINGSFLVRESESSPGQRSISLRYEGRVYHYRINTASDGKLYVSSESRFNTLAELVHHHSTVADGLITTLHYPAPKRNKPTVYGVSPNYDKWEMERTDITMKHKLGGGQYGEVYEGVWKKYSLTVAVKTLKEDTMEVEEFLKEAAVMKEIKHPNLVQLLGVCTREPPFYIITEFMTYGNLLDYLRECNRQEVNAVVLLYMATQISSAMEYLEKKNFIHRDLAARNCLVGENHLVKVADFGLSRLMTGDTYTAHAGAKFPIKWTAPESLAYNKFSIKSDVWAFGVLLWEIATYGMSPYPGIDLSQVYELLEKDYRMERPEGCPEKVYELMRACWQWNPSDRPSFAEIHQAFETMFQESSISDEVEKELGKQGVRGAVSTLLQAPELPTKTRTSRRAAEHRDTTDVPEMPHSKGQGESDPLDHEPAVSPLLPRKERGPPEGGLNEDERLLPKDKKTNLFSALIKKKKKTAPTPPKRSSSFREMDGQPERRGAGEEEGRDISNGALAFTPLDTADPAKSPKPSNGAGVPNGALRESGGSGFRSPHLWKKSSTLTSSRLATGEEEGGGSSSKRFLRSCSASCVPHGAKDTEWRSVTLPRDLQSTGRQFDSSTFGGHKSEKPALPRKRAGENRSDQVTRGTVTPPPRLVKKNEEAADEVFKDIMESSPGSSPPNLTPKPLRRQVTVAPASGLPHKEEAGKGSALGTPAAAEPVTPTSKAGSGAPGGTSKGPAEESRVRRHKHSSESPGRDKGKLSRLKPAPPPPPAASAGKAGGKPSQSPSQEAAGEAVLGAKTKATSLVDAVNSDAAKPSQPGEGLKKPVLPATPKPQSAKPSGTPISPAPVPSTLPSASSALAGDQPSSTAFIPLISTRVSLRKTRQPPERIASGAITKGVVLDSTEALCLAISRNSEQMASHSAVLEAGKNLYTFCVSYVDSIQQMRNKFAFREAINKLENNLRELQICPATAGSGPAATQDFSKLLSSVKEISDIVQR
Method: (§4) The test compound, reference compound or water (control) were mixed with the enzyme (for the exact amount see table below) in the appropriate buffer. Thereafter, the reaction was initiated by adding the required amount of the appropriate substrate and of ATP, and the mixture is incubated at room temperature (variable reaction time, see table below). For control basal measurements, the enzyme was omitted from the reaction mixture. Following incubation, the reaction was stopped by adding 13 mM EDTA. After 5 min, the proper antibody labelled with europium chelate was added. After 60 more min, the fluorescence transfer was measured at λex=337 nm, λem=620 nm and λem=665 nm using a microplate reader (Envision, Perkin Elmer). The enzyme activity was determined by dividing the signal measured at 665 nm by that measured at 620 nm (ratio). The results are expressed as a percent inhibition of the control enzyme activity.

CDC2/CDK1 (h) (cycB) = biological target: T2, CDC2/CDK1 (h) (cycB) (Homo sapiens, UniProt P06493); test: Kinase panel (Cerep); assay type: biochemical; settings: read-out: % inhibition at 10 µM by MC3353, CDC2/CDK1 (h) (cycB), ATP 10 μM
T2 construct: purchased Eurofins Cerep
Method: as §4

FGFR1 kinase (h) = biological target: T3, FGFR1 kinase (h) (Homo sapiens, UniProt P11362); test: Kinase panel (Cerep); assay type: biochemical; settings: read-out: % inhibition at 10 µM by MC3353, FGFR1 kinase (h), ATP 100 μM
T3 construct: purchased Eurofins Cerep
Method: as §4

FGFR2 kinase (h) = biological target: T4, FGFR2 kinase (h) (Homo sapiens, UniProt P21802); test: Kinase panel (Cerep); assay type: biochemical; settings: read-out: % inhibition at 10 µM by MC3353, FGFR2 kinase (h), ATP 10 μM
T4 construct: purchased Eurofins Cerep
Method: as §4

FGFR3 kinase (h) = biological target: T5, FGFR3 kinase (h) (Homo sapiens, UniProt P22607); test: Kinase panel (Cerep); assay type: biochemical; settings: read-out: % inhibition at 10 µM by MC3353, FGFR3 kinase (h), ATP 10 μM
T5 construct: purchased Eurofins Cerep
T5 sequence (P22607 23-806): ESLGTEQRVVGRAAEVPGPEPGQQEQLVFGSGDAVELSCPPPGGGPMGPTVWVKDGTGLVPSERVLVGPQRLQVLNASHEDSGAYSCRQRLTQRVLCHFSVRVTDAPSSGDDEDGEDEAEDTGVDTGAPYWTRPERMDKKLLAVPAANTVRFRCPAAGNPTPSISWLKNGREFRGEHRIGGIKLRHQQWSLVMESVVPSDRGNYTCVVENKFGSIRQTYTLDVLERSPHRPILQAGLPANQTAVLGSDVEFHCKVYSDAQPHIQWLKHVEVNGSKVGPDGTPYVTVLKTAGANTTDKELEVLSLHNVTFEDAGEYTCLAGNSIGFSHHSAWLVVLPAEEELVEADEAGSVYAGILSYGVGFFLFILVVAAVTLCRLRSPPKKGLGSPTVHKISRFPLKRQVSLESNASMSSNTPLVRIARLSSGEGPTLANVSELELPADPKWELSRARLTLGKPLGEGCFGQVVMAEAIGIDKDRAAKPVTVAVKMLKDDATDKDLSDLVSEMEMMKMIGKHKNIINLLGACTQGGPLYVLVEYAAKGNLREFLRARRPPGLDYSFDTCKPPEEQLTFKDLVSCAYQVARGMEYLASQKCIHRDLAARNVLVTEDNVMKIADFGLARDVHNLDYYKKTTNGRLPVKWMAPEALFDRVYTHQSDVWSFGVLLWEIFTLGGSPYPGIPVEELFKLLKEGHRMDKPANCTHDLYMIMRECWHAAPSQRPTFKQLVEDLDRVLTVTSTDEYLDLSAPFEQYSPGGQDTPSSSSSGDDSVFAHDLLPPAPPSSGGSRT
Method: as §4

IKKalpha (h) = biological target: T6, IKKalpha (h) (Homo sapiens, UniProt O15111); test: Kinase panel (Cerep); assay type: biochemical; settings: read-out: % inhibition at 10 µM by MC3353, IKKalpha (h), ATP 5 μM
T6 construct: purchased Eurofins Cerep
T6 sequence (O15111 whole entry): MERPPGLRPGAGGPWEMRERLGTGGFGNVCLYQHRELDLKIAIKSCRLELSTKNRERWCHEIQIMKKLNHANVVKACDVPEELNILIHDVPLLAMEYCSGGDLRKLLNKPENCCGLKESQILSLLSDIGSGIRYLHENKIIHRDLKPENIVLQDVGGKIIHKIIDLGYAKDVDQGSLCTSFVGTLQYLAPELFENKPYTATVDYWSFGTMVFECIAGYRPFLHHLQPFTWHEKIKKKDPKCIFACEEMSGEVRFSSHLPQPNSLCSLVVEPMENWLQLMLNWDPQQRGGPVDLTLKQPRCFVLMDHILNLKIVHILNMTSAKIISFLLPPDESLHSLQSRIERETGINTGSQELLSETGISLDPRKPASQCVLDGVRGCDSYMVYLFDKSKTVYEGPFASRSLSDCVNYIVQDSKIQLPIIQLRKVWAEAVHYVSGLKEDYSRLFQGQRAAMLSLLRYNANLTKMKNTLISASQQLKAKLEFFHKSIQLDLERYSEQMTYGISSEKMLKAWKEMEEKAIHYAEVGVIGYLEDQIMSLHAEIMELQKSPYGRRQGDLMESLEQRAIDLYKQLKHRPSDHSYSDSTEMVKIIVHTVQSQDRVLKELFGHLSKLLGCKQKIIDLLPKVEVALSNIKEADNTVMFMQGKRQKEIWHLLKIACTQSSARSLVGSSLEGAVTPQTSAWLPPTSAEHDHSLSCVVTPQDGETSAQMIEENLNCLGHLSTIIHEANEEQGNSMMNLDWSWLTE
Method: as §4

IRK (h) (InsR) = biological target: T7, IRK (h) (InsR) (Homo sapiens, UniProt P06213); test: Kinase panel (Cerep); assay type: biochemical; settings: read-out: % inhibition at 10 µM by MC3353, IRK (h) (InsR), ATP 30 μM
T7 construct: purchased Eurofins Cerep
T7 sequence (P06213 28-1382): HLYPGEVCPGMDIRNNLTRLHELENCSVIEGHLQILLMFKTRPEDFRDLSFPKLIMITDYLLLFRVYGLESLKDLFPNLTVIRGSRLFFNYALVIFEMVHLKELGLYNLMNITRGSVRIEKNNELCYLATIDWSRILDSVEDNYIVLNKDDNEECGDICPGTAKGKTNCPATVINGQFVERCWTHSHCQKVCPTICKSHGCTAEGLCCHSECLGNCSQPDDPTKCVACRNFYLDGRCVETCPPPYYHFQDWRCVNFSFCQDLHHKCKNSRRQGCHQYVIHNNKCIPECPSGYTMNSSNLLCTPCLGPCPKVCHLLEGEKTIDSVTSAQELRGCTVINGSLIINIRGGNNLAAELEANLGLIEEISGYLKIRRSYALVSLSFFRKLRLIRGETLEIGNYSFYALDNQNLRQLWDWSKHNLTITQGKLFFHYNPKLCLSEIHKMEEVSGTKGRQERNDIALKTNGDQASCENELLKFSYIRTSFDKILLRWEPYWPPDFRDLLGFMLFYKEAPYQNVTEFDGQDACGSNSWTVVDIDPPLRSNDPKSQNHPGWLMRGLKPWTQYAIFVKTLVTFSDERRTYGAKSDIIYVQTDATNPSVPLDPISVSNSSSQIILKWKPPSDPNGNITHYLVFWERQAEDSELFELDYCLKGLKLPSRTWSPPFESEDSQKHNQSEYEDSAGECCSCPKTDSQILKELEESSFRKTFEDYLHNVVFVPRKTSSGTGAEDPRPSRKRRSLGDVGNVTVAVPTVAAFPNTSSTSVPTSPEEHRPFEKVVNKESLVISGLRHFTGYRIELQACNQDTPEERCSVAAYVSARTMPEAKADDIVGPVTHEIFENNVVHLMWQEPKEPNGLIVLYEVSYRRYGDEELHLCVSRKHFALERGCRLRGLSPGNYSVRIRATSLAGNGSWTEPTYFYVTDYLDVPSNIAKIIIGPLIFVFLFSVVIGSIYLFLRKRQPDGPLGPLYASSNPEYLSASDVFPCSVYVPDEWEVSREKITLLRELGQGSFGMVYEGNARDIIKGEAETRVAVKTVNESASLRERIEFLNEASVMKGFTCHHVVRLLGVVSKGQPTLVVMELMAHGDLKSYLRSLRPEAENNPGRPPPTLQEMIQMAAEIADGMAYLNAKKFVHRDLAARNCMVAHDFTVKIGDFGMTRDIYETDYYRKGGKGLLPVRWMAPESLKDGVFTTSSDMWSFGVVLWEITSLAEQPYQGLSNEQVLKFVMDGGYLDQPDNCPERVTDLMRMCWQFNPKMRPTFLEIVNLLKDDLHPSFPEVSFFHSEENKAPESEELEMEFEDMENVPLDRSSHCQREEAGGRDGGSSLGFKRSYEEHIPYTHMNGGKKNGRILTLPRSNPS
Method: as §4

MNK2 (h) = biological target: T8, MNK2 (h) (Homo sapiens, UniProt Q9HBH9); test: Kinase panel (Cerep); assay type: biochemical; settings: read-out: % inhibition at 10 µM by MC3353, MNK2 (h), ATP 100 μM
T8 construct: purchased Eurofins Cerep
T8 sequence (Q9HBH9 whole entry): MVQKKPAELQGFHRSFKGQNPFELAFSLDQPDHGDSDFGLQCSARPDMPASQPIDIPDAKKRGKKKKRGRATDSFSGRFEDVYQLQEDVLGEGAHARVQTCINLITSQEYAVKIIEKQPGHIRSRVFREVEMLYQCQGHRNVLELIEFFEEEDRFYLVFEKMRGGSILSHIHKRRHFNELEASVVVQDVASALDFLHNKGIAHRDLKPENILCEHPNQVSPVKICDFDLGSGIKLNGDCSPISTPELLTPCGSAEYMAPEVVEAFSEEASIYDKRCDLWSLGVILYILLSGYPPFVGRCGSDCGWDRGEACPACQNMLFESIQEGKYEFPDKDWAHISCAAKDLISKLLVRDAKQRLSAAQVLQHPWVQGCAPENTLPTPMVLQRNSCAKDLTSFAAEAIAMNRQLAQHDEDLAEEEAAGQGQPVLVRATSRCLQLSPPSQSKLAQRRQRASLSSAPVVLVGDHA
Method: as §4

NEK2 (h) = biological target: T9, NEK2 (h) (Homo sapiens, UniProt P51955); test: Kinase panel (Cerep); assay type: biochemical; settings: read-out: % inhibition at 10 µM by MC3353, NEK2 (h), ATP 10 μM
T9 construct: purchased Eurofins Cerep
Method: as §4

PKA (h) = biological target: T10, PKA (h) (Homo sapiens, UniProt P17612); test: Kinase panel (Cerep); assay type: biochemical; settings: read-out: % inhibition at 10 µM by MC3353, PKA (h), ATP 1 μM
T10 construct: purchased Eurofins Cerep
Method: as §4

Pim2 kinase (h) = biological target: T11, Pim2 kinase (h) (Homo sapiens, UniProt Q9P1W9); test: Kinase panel (Cerep); assay type: biochemical; settings: read-out: % inhibition at 10 µM by MC3353, Pim2 kinase (h), ATP 3 μM
T11 construct: purchased Eurofins Cerep
Method: as §4

ROCK1 (h) = biological target: T12, ROCK1 (h) (Homo sapiens, UniProt Q13464); test: Kinase panel (Cerep); assay type: biochemical; settings: read-out: % inhibition at 10 µM by MC3353, ROCK1 (h), ATP 1 μM
T12 construct: purchased Eurofins Cerep
Method: as §4

SGK1 (h) = biological target: T13, SGK1 (h) (Homo sapiens, UniProt O00141); test: Kinase panel (Cerep); assay type: biochemical; settings: read-out: % inhibition at 10 µM by MC3353, SGK1 (h), ATP 10 μM
T13 construct: purchased Eurofins Cerep
T13 sequence (O00141 whole entry): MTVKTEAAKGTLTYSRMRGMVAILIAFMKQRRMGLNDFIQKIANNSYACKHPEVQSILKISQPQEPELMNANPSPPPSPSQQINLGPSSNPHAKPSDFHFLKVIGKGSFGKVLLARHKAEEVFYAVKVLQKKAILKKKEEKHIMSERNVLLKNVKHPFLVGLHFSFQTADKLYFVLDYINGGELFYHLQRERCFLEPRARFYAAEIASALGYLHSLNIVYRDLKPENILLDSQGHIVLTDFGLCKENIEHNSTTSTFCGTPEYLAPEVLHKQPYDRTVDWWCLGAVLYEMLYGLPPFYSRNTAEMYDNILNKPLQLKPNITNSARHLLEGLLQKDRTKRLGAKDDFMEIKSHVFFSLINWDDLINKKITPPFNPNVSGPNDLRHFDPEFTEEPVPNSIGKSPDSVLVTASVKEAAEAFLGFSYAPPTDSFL
Method: as §4

With O=C(Nc1ccc(NC(=O)c2ccc(Nc3ccnc4ccccc34)cc2)cc1)OCc1ccccc1 [MC3353, Benzyl (4-(4-(quinolin-4-ylamino)benzamido)phenyl)carbamate] the “Selectivity index (IC50 PBMCs/IC50 cell line), KG-1” value (KG-1; 48 h) was “(26.2)”, the “Selectivity index (IC50 PHA_PBMCs/IC50 cell line), KG-1” value (KG-1; 48 h) was “(13.5)” and the “Selectivity index (IC50 RPMI1788/IC50 cell line), KG-1” value (KG-1; 48 h) was “(7.2)”. The IC50 (KG-1; Homo sapiens, KG-1, 48 h of treatment, read-out: IC50 ± SD, cell viability, KG-1) was 300 nM, the “Selectivity index (IC50 PBMCs/IC50 cell line), MDA-MB-231” value (MDA-MB-231; 48 h) was “(9.7)” and the “Selectivity index (IC50 PHA_PBMCs/IC50 cell line), MDA-MB-231” value (MDA-MB-231; 48 h) was “(5.0)”. The “Selectivity index (IC50 RPMI1788/IC50 cell line), MDA-MB-231” value (MDA-MB-231; 48 h) was “(2.6)”, the IC50 (MDA-MB-231; Homo sapiens, MDA-MB-231, 48 h of treatment, read-out: IC50 ± SD, cell viability, MDA-MB-231) was 900 ± 700 nM and the “Selectivity index (IC50 PBMCs/IC50 cell line), PC-3” value (PC-3; 48 h) was “(9.8)”. For the same compound, the “Selectivity index (IC50 PHA_PBMCs/IC50 cell line), PC-3” value (PC-3; 48 h) was “(5.1)”, the “Selectivity index (IC50 RPMI1788/IC50 cell line), PC-3” value (PC-3; 48 h) was “(2.7)” and the IC50 (PC-3; Homo sapiens, PC-3, 48 h of treatment, read-out: IC50 ± SD, cell viability, PC-3) was 900 ± 400 nM. For the same compound, the “Selectivity index (IC50 PBMCs/IC50 cell line), RAJI” value (RAJI; 48 h) was “(23.1)”, the “Selectivity index (IC50 PHA_PBMCs/IC50 cell line), RAJI” value (RAJI; 48 h) was “(11.9)” and the “Selectivity index (IC50 RPMI1788/IC50 cell line), RAJI” value (RAJI; 48 h) was “(6.3)”. For the same compound, the IC50 (RAJI; Homo sapiens, Raji, 48 h of treatment, read-out: IC50 ± SD, cell viability, RAJI) was 400 nM, the “Selectivity index (IC50 PBMCs/IC50 cell line), U-937” value (U-937; 48 h) was “(24.0)” and the “Selectivity index (IC50 PHA_PBMCs/IC50 cell line), U-937” value (U-937; 48 h) was “(12.4)”. For the same compound, the “Selectivity index (IC50 RPMI1788/IC50 cell line), U-937” value (U-937; 48 h) was “(6.6)”, the IC50 (U-937; Homo sapiens, U-937, 48 h of treatment, read-out: IC50 ± SD, cell viability, U-937) was 400 nM and the IC50 [1] was 2400 ± 200 nM. It also gave an inhibition at 10 µM (Abl kinase (h)) of 0%, an inhibition at 10 µM (CDC2/CDK1 (h) (cycB)) of -25% and an inhibition at 10 µM (FGFR1 kinase (h)) of -200%. The inhibition at 10 µM (FGFR2 kinase (h)) was 19%, the inhibition at 10 µM (FGFR3 kinase (h)) was -169% and the inhibition at 10 µM (IKKalpha (h)) was 18%. For the same compound, the inhibition at 10 µM (IRK (h) (InsR)) was 38%, the inhibition at 10 µM (MNK2 (h)) was 21% and the inhibition at 10 µM (NEK2 (h)) was -9%. For the same compound, the inhibition at 10 µM (PKA (h)) was 27%, the inhibition at 10 µM (Pim2 kinase (h)) was 20% and the inhibition at 10 µM (ROCK1 (h)) was -51%. It also gave an inhibition at 10 µM (SGK1 (h)) of 29%.
